From patent publication US20020002124A1, “Antimicrobial cleansing compositions” (priority 2000, published 2002)

Experiment: Mildness to the skin (drying, stinging) on topical use
Format: in vivo
Conditions: as proton donating agent in the compositions

With `O=C1CCC(C(=O)O)N1` (stereo not shown) [2-pyrrolidone-5 carboxylic acid] the “mildness to the skin and stinging compared with other acids suitable for topical application” value was “milder to the skin and causes less stinging than many other acids”.
